From patent publication US4723008A, “Isoprenylamine derivatives” (priority 1981, dated 1988)

Legend:
tumor cells KN7 -8 = test: Anti-tumor activity (survivors on the 30th day); type: in vivo, Balb/c male mice; details: 30 mg/kg intraperitoneally 3 times (24 hours before, second and fifth day after inoculation of 5×10^5 cells); survivors/group
From the text: Groups, each consisting of Balb/c male mice weighing about 20 g, were intraperitoneally administered 5×10^5 of tumor cells KN7 -8.

vaccinia virus = type: in vivo, vaccinia virus; ICR female mice; details: 50 mg/kg intraperitoneally 24 hours before inoculation; lesions counted on 8th day
[1] = tested on: Human interferon (normal diploid cells (fibroblast) originated from human being); test: Human interferon inducing activity (in vitro), 3H-uridine-uptake inhibition; type: cell-based; details: 25 n molar suspension
Description: (5) Human interferon inducing activity (in vitro)
Interferon was induced according to the method of Edward A. Havell et al. by treating normal diploid cells (fibroblast) originated from human being with each test compound in the form of ethanol solution diluted with PBS (--), (25 n molar suspension). Using the radioisotope microassay method or H. Ishitsuka et al., interferon was measured in terms of 3H-uridine-uptakeinhibition rate.

[2] = Toxicity, 50% lethal dose, intravenous; details: mouse, in vivo, ddY male mice, read-out: LD50 (Intravenous administration mg/kg)
From the text: Using ddY male mice weighing 20-25 g, 50% lethal dose of each test compound intravenously administered was obtained, the results of which are shown in Table 6.

[3] = tested on: vaccinia virus (vero cells); type: cell-based; details: 50 n molar concentration

CC(C)=CCCC(C)=CCCC(C)=CCCC(C)=CCCC(C)=CCCC(C)=CCCC(C)=CCCC(C)=CCCC(C)=CCCC(C)=CCN1CCOCCOCCNCCOCCOCC1 [drawing 56]
Anti-tumor activity (Survivor on the 30th day) (tumor cells KN7 -8): 3/6

CC(C)=CCCC(C)=CCCC(C)=CCCC(C)=CCCC(C)=CCCC(C)=CCCC(C)=CCCC(C)=CCCC(C)=CCCC(C)=CCN1CCOCCOCCNCCOCCOCC1 [drawing 37]
Prevention from vaccinia infection (Pock inhibition rate %) (vaccinia virus): 57.1%

CC(C)=CCCC(C)=CCCC(C)=CCCC(C)=CCCC(C)=CCCC(C)=CCCC(C)=CCCC(C)=CCCC(C)=CCN(CCc1ccccc1)CC(O)CN1CCN(CCO)CC1 (stereo not shown) [drawing 59]
Anti-tumor activity (Survivor on the 30th day) (tumor cells KN7 -8): 4/6

CC(C)=CCCC(C)=CCCC(C)=CCCC(C)=CCCC(C)=CCCC(C)=CCCC(C)=CCCC(C)=CCCC(C)=CCN(CCO)Cc1ccccc1 [drawing 74]
Human interferon 3H-uridine-uptake inhibition rate (%) [1]: 5.1%

CC(C)=CCCC(C)=CCCC(C)=CCCC(C)=CCCC(C)=CCCC(C)=CCCC(C)=CCCC(C)=CCCC(C)=CCCC(C)=CCN(CCO)CC(O)c1ccccc1 (stereo not shown) [drawing 62]
LD50 [2]: 258 mg/kg

CC(C)=CCCC(C)=CCCC(C)=CCCC(C)=CCCC(C)=CCCC(C)=CCCC(C)=CCCC(C)=CCCC(C)=CCCC(C)=CCN(CCO)Cc1ccccc1 [drawing 79]
Human interferon 3H-uridine-uptake inhibition rate (%) [1]: 25.4%

CC(C)=CCCC(C)=CCCC(C)=CCCC(C)=CCCC(C)=CCCC(C)=CCCC(C)=CCCC(C)=CCCC(C)=CCN(CC=C(C)CCC=C(C)CCC=C(C)CCC=C(C)CCC=C(C)CCC=C(C)CCC=C(C)CCC=C(C)CCC=C(C)C)CCCCc1ccccc1
Prevention from vaccinia infection (Pock inhibition rate %) (vaccinia virus): 34.1%

CC(C)=CCCC(C)=CCCC(C)=CCCC(C)=CCCC(C)=CCCC(C)=CCCC(C)=CCCC(C)=CCCC(C)=CCCC(C)=CCN(Cc1ccccc1)CC(O)CN(CCO)CCO (stereo not shown) [drawing 63]
LD50 [2]: 162 mg/kg

CC(C)=CCCC(C)=CCCC(C)=CCCC(C)=CCCC(C)=CCCC(C)=CCCC(C)=CCCC(C)=CCCC(C)=CCN(CCc1ccccc1)CC(O)CN1CCN(CCO)CC1 (stereo not shown) [drawing 42]
Prevention from vaccinia infection (Pock inhibition rate %) (vaccinia virus): 85.6%

CC(C)=CCCC(C)=CCCC(C)=CCCC(C)=CCCC(C)=CCCC(C)=CCCC(C)=CCCC(C)=CCCC(C)=CCCC(C)=CCN(Cc1ccccc1)CC(O)CNC(C)(C)C (stereo not shown) [drawing 58]
Anti-tumor activity (Survivor on the 30th day) (tumor cells KN7 -8): 2/6

CC(C)=CCCC(C)=CCCC(C)=CCCC(C)=CCCC(C)=CCCC(C)=CCCC(C)=CCCC(C)=CCCC(C)=CCN(CCc1ccccc1)CC(O)CNC(C)(C)C (stereo not shown) [drawing 71]
Human interferon 3H-uridine-uptake inhibition rate (%) [1]: 32.6%

CC(C)=CCCC(C)=CCCC(C)=CCCC(C)=CCCC(C)=CCCC(C)=CCCC(C)=CCCC(C)=CCCC(C)=CCN(CCO)Cc1ccccc1 [drawing 66]
LD50 [2]: 791 mg/kg

CC(C)=CCCC(C)=CCCC(C)=CCCC(C)=CCCC(C)=CCCC(C)=CCCC(C)=CCCC(C)=CCCC(C)=CCCC(C)=CCN(Cc1ccccc1)CC(O)CN(CCO)CCO (stereo not shown) [drawing 57]
Anti-tumor activity (Survivor on the 30th day) (tumor cells KN7 -8): 1/6

CC(C)=CCCC(C)=CCCC(C)=CCCC(C)=CCCC(C)=CCCC(C)=CCCC(C)=CCCC(C)=CCCC(C)=CCN(Cc1ccccc1)Cc1ccccc1 [drawing 73]
Human interferon 3H-uridine-uptake inhibition rate (%) [1]: 4.4%

CC(C)=CCCC(C)=CCCC(C)=CCCC(C)=CCCC(C)=CCCC(C)=CCCC(C)=CCCC(C)=CCCC(C)=CCN(Cc1ccccc1)Cc1ccccc1 [drawing 43]
Prevention from vaccinia infection (Pock inhibition rate %) (vaccinia virus): 50.3%

CC(C)=CCCC(C)=CCCC(C)=CCCC(C)=CCCC(C)=CCCC(C)=CCCC(C)=CCCC(C)=CCCC(C)=CCN(CCc1ccccc1)CC(O)CN1CCN(CCO)CC1 (stereo not shown) [drawing 72]
Human interferon 3H-uridine-uptake inhibition rate (%) [1]: 17.4%

CC(C)=CCCC(C)=CCCC(C)=CCCC(C)=CCCC(C)=CCCC(C)=CCCC(C)=CCCC(C)=CCCC(C)=CCCC(C)=CCN(Cc1ccccc1)CC(O)CN(CCO)CCO (stereo not shown) [drawing 83]
Anti-vaccinia virus activity (Plaque inhibition rate %) [3]: 10.6%

COc1ccc(CN(CC=C(C)CCC=C(C)CCC=C(C)CCC=C(C)CCC=C(C)CCC=C(C)CCC=C(C)CCC=C(C)CCC=C(C)C)CC=C(C)CCC=C(C)CCC=C(C)CCC=C(C)CCC=C(C)CCC=C(C)CCC=C(C)CCC=C(C)CCC=C(C)C)cc1OC
Prevention from vaccinia infection (Pock inhibition rate %) (vaccinia virus): 32.4%

CC(C)=CCCC(C)=CCCC(C)=CCCC(C)=CCCC(C)=CCCC(C)=CCCC(C)=CCCC(C)=CCCC(C)=CCCC(C)=CCN(CCO)CC(O)c1ccccc1 (stereo not shown) [drawing 68]
Human interferon 3H-uridine-uptake inhibition rate (%) [1]: 4.3%

CC(C)=CCCC(C)=CCCC(C)=CCCC(C)=CCCC(C)=CCCC(C)=CCCC(C)=CCCC(C)=CCCC(C)=CCCC(C)=CCN(CCO)Cc1ccccc1 [drawing 84]
Anti-vaccinia virus activity (Plaque inhibition rate %) [3]: 14.1%

CC(C)=CCCC(C)=CCCC(C)=CCCC(C)=CCCC(C)=CCCC(C)=CCCC(C)=CCCC(C)=CCCC(C)=CCCC(C)=CCN(CCO)Cc1ccccc1 [drawing 49]
Prevention from vaccinia infection (Pock inhibition rate %) (vaccinia virus): 38.4%

CC(C)=CCCC(C)=CCCC(C)=CCCC(C)=CCCC(C)=CCCC(C)=CCCC(C)=CCCC(C)=CCCC(C)=CCCC(C)=CCN(Cc1ccccc1)CC(O)CNC(C)(C)C (stereo not shown) [drawing 70]
Human interferon 3H-uridine-uptake inhibition rate (%) [1]: 59.8%

CC(C)=CCCC(C)=CCCC(C)=CCCC(C)=CCCC(C)=CCCC(C)=CCCC(C)=CCCC(C)=CCCC(C)=CCCC(C)=CCN(CCO)CC(O)c1ccccc1 (stereo not shown) [drawing 38]
Prevention from vaccinia infection (Pock inhibition rate %) (vaccinia virus): 60.1%

CC(C)=CCCC(C)=CCCC(C)=CCCC(C)=CCCC(C)=CCCC(C)=CCCC(C)=CCCC(C)=CCCC(C)=CCCC(C)=CCN1CCOCCOCCNCCOCCOCC1 [drawing 67]
Human interferon 3H-uridine-uptake inhibition rate (%) [1]: 28.3%

CC(C)=CCCC(C)=CCCC(C)=CCCC(C)=CCCC(C)=CCCC(C)=CCCC(C)=CCCC(C)=CCCC(C)=CCN(CCc1ccccc1)CC(O)CNC(C)(C)C (stereo not shown) [drawing 41]
Prevention from vaccinia infection (Pock inhibition rate %) (vaccinia virus): 82.9%

CC(C)=CCCC(C)=CCCC(C)=CCCC(C)=CCCC(C)=CCCC(C)=CCCC(C)=CCCC(C)=CCCC(C)=CCN(CCCN)CCCN
Anti-tumor activity (Survivor on the 30th day) (tumor cells KN7 -8): 4/6

COc1ccc(CN(CC=C(C)CCC=C(C)CCC=C(C)CCC=C(C)CCC=C(C)CCC=C(C)CCC=C(C)CCC=C(C)CCC=C(C)CCC=C(C)C)CC=C(C)CCC=C(C)CCC=C(C)CCC=C(C)CCC=C(C)CCC=C(C)CCC=C(C)CCC=C(C)CCC=C(C)CCC=C(C)C)cc1
Prevention from vaccinia infection (Pock inhibition rate %) (vaccinia virus): 38.8%

CC(C)=CCCC(C)=CCCC(C)=CCCC(C)=CCCC(C)=CCCC(C)=CCCC(C)=CCCC(C)=CCCC(C)=CCCC(C)=CCN(Cc1ccccc1)CC(O)CN(CCO)CCO (stereo not shown) [drawing 69]
Human interferon 3H-uridine-uptake inhibition rate (%) [1]: 61.3%

CC(C)=CCCC(C)=CCCC(C)=CCCC(C)=CCCC(C)=CCCC(C)=CCCC(C)=CCCC(C)=CCCC(C)=CCN(CCO)Cc1ccccc1 [drawing 44]
Prevention from vaccinia infection (Pock inhibition rate %) (vaccinia virus): 53.4%

CC(C)=CCCC(C)=CCCC(C)=CCCC(C)=CCCC(C)=CCCC(C)=CCCC(C)=CCCC(C)=CCCC(C)=CCCC(C)=CCN1CCN(Cc2ccccc2)CC1 [drawing 78]
Human interferon 3H-uridine-uptake inhibition rate (%) [1]: 3.6%

CC(C)=CCCC(C)=CCCC(C)=CCCC(C)=CCCC(C)=CCCC(C)=CCCC(C)=CCCC(C)=CCCC(C)=CCN(CCc1ccccc1)CC(O)CN1CCN(CCO)CC1 (stereo not shown) [drawing 65]
LD50 [2]: 338 mg/kg

COc1ccc(CN(CC=C(C)CCC=C(C)C)CC=C(C)CCC=C(C)C)cc1OC
Human interferon 3H-uridine-uptake inhibition rate (%) [1]: 68.4%

CC(C)=CCCC(C)=CCCC(C)=CCCC(C)=CCCC(C)=CCCC(C)=CCCC(C)=CCCC(C)=CCCC(C)=CCCC(C)=CCN1CCN(Cc2ccccc2)CC1 [drawing 48]
Prevention from vaccinia infection (Pock inhibition rate %) (vaccinia virus): 64.0%

CC(C)=CCCC(C)=CCCC(C)=CCCC(C)=CCCC(C)=CCCC(C)=CCCC(C)=CCCC(C)=CCCC(C)=CCN(CCc1ccccc1)CC(O)CNC(C)(C)C (stereo not shown) [drawing 64]
LD50 [2]: 28 mg/kg
